Results taken from patent US20240199605A1, “SMALL MOLECULAR INHIBITORS OF NF-kB INDUCING KINASE” (Janssen Pharmaceutica NV, priority 2019, published 2024).
Where two headings read alike, the source gives them in different places.

What was measured:
[1] = system: p-IKKα levels in L363 (NIK translocated multiple myeloma) cells; test: Effect of compounds on p-IKKα levels in L363 cells (AlphaLISA SureFire Ultra); type: cell-based, human; details: BAFF stimulated, MG132, 6 h, average of values, read-out: Assay 2 IC50
Method: Effect of Compounds on p-IKKα Levels in L363 (NIK Translocated Multiple Myeloma) Cells
All compounds tested were dissolved and serially diluted in DMSO, 1:3 dilution for 11 points in an Echo compatible plate. 100% DMSO was added to columns 12 and 24 of the plate to serve as high and low signal controls. This compound plate was used to spot 20 nL of compound or DMSO into a Greiner 384 well TC plate (781080). The final DMSO concentration was 0.3% (v/v) in cell assays. Human L363 cells (ATCC) were cultured in RPM11640 medium supplemented with GlutaMax, non-essential amino acids, sodium pyruvate and 10% fetal bovine serum. Cells were routinely maintained at densities of […] at 37° C. in a humidified 5% CO2 atmosphere incubator. Cells were passaged twice a week splitting back to obtain the low density. The day before the assay, cells were washed twice in HBSS (Hank's Balanced Salt Solution), resuspended in Dulbecco's Modified Eagle Medium (DMEM)+0.5% IgG and protease free BSA (Jackson Immuno Research Laboratories), +/−250 ng/ml recombinant human B-cell activating factor (BAFF/BLyS/TNFSF13B) and incubated overnight at 37° C. in a humidified 5% CO2 atmosphere (bulk stimulation with or without BAFF). The next day, the cell concentration was adjusted to 1×10^7 cells/ml in DMEM+/−250 ng/ml BAFF+/−10 μM MG132 and plated at 10 μl/well into compound or DMSO spotted 384 well TC plates. Seeded cells were incubated at 37° C. in a humidified 5% CO2 atmosphere for 6 h. After 6 h, the plates were removed from the incubator and cell lysis was achieved by the addition of 2.5 μl 5× lysis buffer containing protease and phosphatase inhibitors, followed by shaking on a plate shaker at room temperature for 15 min. At the end of this incubation, lysed cells were sequentially treated and incubated with acceptor and donor bead mixes according to the manufacturer's protocol for a 1 plate/2-incubation suspension cell assay (AlphaLISA SureFire Ultra p-IKKa (Ser 176/180) Assay Kit (Perkin Elmer). Plates were read using an EnVision® Multilabel Plate Reader (Perkin Elmer). Within an experiment, a concentration response curve for each compound was run in duplicate. The signal obtained in the test wells was normalized using high signal (BAFF stimulated cells, DMSO, MG132) and low signal (unstimulated cells, DMSO) controls. To determine the IC50, a sigmoidal curve was fitted to the plot of % inhibition versus Log10 compound concentration.

[2] = target: recombinant human NF-kappaB-inducing kinase (NIK/MAP3K14) (Homo sapiens (Human), UniProt Q99558); test: Inhibition of auto-phosphorylation of recombinant human NIK/MAP3K14 (AlphaScreen); type: biochemical; details: NIK auto-phosphorylation, 5 μM ATP, 1 nM NIK, 2 h at 25° C.; average of values
Method: Inhibition of auto-phosphorylation of recombinant human NF-kappaB-inducing kinase (NIK/MAP3K14) activity (AlphaScreen®)
NIK/MAP3K14 auto-phosphorylation activity was measured using the AlphaScreen® (αscreen) format (Perkin Elmer). All compounds tested were dissolved in dimethyl sulfoxide (DMSO) and further dilutions were made in assay buffer. The final DMSO concentration was 0.7% (v/v) in assays. The assay buffer was 50 mM Tris pH 7.5 containing 1 mM EGTA (ethylene glycol tetraacetic acid), 1 mM DTT (dithiothreitol), 0.1 mM Na3VO4, 5 mM MgCl2, and 0.01% Tween® 20. The assays were carried out in 384 well Proxiplates (Perkin Elmer). The incubations consisted of the compound, 5 μM Adenosine-5′-triphosphate (ATP), and 1 nM NIK/MAP3K14. Incubations were initiated by the addition of GST-tagged NIK/MAP3K14 enzyme, carried out for 2 h at 25° C. and terminated by addition of stop buffer containing anti-phospho-IKK Ser176/180 antibody. Protein A Acceptor and Glutathione-Donor beads were added before reading using an EnVision® Multilabel Plate Reader (Perkin Elmer). […] IC50's were determined by fitting a sigmoidal curve to % inhibition of control versus Log10 compound concentration.

Sequence of recombinant human NF-kappaB-inducing kinase (NIK/MAP3K14) (Q99558 whole entry): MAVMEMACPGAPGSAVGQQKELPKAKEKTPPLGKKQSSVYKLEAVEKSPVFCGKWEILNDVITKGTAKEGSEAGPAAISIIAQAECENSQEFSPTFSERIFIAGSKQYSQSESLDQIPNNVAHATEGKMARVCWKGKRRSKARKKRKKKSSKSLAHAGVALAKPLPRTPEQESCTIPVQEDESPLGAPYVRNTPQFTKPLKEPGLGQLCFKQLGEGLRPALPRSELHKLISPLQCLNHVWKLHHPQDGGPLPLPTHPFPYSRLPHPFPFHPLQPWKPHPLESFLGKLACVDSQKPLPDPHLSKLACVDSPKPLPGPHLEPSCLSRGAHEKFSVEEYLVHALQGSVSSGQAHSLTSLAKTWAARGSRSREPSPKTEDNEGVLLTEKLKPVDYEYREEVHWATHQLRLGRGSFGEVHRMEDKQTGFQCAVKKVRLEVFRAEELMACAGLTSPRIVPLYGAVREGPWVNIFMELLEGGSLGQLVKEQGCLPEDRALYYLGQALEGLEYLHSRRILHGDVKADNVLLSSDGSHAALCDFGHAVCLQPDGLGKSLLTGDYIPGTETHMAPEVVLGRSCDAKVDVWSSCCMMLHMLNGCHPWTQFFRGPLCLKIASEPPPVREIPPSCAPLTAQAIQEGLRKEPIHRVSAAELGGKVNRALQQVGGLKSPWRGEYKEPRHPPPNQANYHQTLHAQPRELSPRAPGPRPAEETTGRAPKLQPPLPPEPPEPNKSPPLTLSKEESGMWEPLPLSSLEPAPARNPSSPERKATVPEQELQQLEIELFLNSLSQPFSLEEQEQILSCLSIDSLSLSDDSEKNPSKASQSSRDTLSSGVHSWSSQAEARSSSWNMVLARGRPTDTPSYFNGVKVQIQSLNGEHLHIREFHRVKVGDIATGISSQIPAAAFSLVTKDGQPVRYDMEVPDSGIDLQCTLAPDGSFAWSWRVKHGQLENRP

Compound: Cc1nc(N)c2nc(-c3cccc(C#CC(C)(O)c4c[nH]cn4)c3)ccc2n1 (racemic) [Example 202, racemic-4-(3-(4-Amino-2-methylpyrido[3,2-d]pyrimidin-6-yl)phenyl)-2-(1H-imidazol-4-yl)but-3-yn-2-ol]
- IC50 ([1]; Homo sapiens, L-363, 6 h): 0.28 µM
- IC50 [2]: 0.001 µM

Compound: [2H]C([2H])([2H])N1CC[C@@](O)(C#Cc2ccc(C)c(-c3ccc4ccnc(N)c4c3)c2)C1=O (single isomer, unassigned) [Example 71]
- IC50 [1]: > 5 µM
- IC50 [2]: 4.22 µM

Compound: CN1CCC(O)(C#Cc2cccc(-c3ccc4ccnc(N)c4n3)c2)C1=O (stereo in doubt) [Example 19, (R)-3-[2-[3-(8-Amino-1,7-naphthyridin-2-yl)phenyl]ethynyl]-3-hydroxy-1-methyl-pyrrolidin-2-one]
- IC50 ([1]; Homo sapiens, L-363, 6 h): 0.0099 µM
- IC50 [2]: ≤ 0.0005 µM

Compound: O=c1[nH]ccc2cnc(-c3cccc(C#CC4(O)CCc5cccnc54)c3)nc12 (stereo in doubt) [Example 47, (R)-2-[3-[2-(7-Hydroxy-5,6-dihydrocyclopenta[b]pyridin-7-yl)ethynyl]phenyl]-7H-pyrido[3,4-d]pyrimidin-8-one]
- IC50 ([1]; Homo sapiens, L-363, 6 h): 1.6 µM
- IC50 [2]: 0.042 µM

Compound: [2H]C([2H])([2H])N1CCC(O)(C#Cc2cccc(-c3ncc4ccnc(N)c4n3)c2)C1=O (stereo in doubt) [Example 66, (R)-3-[2-[3-(8-Aminopyrido[3,4-d]pyrimidin-2-yl)phenyl]ethynyl]-3-hydroxy-1-(trideuteriomethyl)pyrrolidin-2-one]
- IC50 ([1]; Homo sapiens, L-363, 6 h): 0.0045 µM
- IC50 [2]: ≤ 0.0005 µM

Compound: [2H]C([2H])([2H])N1CCC(O)(C#Cc2cccc(-c3ncc4ccnc(N)c4n3)c2)C1=O (stereo in doubt) [Example 67, (S)-3-[2-[3-(8-Aminopyrido[3,4-d]pyrimidin-2-yl)phenyl]ethynyl]-3-hydroxy-1-(trideuteriomethyl)pyrrolidin-2-one]
- IC50 ([1]; Homo sapiens, L-363, 6 h): 0.35 µM
- IC50 [2]: 0.011 µM

Compound: Nc1nccc2cnc(-c3cccc(C#CC4(O)CCN(CC(F)(F)F)C4=O)c3)nc12 (stereo in doubt) [Example 72, (R)-3-[2-[3-(8-Aminopyrido[3,4-d]pyrimidin-2-yl)phenyl]ethynyl]-3-hydroxy-1-(2,2,2-trifluoroethyl)pyrrolidin-2-one]
- IC50 ([1]; Homo sapiens, L-363, 6 h): 0.91 µM
- IC50 [2]: 0.008 µM

Compound: Nc1nccc2cnc(-c3cccc(C#CC4(O)CCN(CC(F)(F)F)C4=O)c3)nc12 (stereo in doubt) [Example 73, (S)-3-[2-[3-(8-Aminopyrido[3,4-d]pyrimidin-2-yl)phenyl]ethynyl]-3-hydroxy-1-(2,2,2-trifluoroethyl)pyrrolidin-2-one]
- IC50 ([1]; Homo sapiens, L-363, 6 h): > 5 µM
- IC50 [2]: 1.73 µM

Compound: [2H]C([2H])([2H])N1CCC(O)(C#Cc2cccc(-c3ncc4c(C)cnc(N)c4n3)c2)C1=O (stereo in doubt) [Example 87, (R)-3-[2-[3-(8-Amino-5-methyl-pyrido[3,4-d]pyrimidin-2-yl)phenyl]ethynyl]-3-hydroxy-1-(trideuteriomethyl)pyrrolidin-2-one]
- IC50 ([1]; Homo sapiens, L-363, 6 h): 0.006 µM
- IC50 [2]: ≤ 0.0005 µM

Compound: Nc1nccc2ccc(-c3cccc(C#CC4(O)CCn5ccnc54)c3)nc12 (stereo in doubt) [Example 91, (R)-7-[2-[3-(8-Amino-1,7-naphthyridin-2-yl)phenyl]ethynyl]-5,6-dihydropyrrolo[1,2-a]imidazol-7-ol]
- IC50 ([1]; Homo sapiens, L-363, 6 h): 0.017 µM
- IC50 [2]: ≤ 0.0005 µM

Compound: CN1CCC(O)(C#Cc2cccc(-c3ncc4ccnc(N5CCC5)c4n3)c2)C1=O (stereo in doubt) [Example 248, (S)-3-((3-(8-(Azetidin-1-yl)pyrido[3,4-d]pyrimidin-2-yl)phenyl)ethynyl)-3-hydroxy-1-methylpyrrolidin-2-one]
- IC50 [1]: > 5 µM
- IC50 [2]: 3.34 µM

Compound: Cc1nc(N)c2nc(-c3cccc(C#C[C@@]4(O)C(=O)N(C)C[C@@H]4C)c3)ccc2n1 (stereo in doubt) [Example 291, (3R,4S*)-3-((3-(4-Amino-2-methylpyrido[3,2-d]pyrimidin-6-yl)phenyl)ethynyl)-3-hydroxy-1,4-dimethylpyrrolidin-2-one]
- IC50 ([1]; Homo sapiens, L-363, 6 h): 1.39 µM
- IC50 [2]: 0.054 µM

Compound: Cc1nc(N)c2nc(-c3cccc(C#C[C@@]4(O)C(=O)N(C)C[C@H]4C)c3)ccc2n1 (stereo in doubt) [Example 292, (3R,4R*)-3-((3-(4-Amino-2-methylpyrido[3,2-d]pyrimidin-6-yl)phenyl)ethynyl)-3-hydroxy-1,4-dimethylpyrrolidin-2-one]
- IC50 ([1]; Homo sapiens, L-363, 6 h): 0.66 µM
- IC50 [2]: 0.022 µM

Compound: Cc1nc(N)c2nc(-c3cccc(C#C[C@]4(O)C(=O)N(C)C[C@@H]4C)c3)ccc2n1 (stereo in doubt) [Example 293, (3S,4S*)-3-((3-(4-Amino-2-methylpyrido[3,2-d]pyrimidin-6-yl)phenyl)ethynyl)-3-hydroxy-1,4-dimethylpyrrolidin-2-one]
- IC50 ([1]; Homo sapiens, L-363, 6 h): > 5 µM
- IC50 [2]: > 5 µM

Compound: Cc1nc(N)c2nc(-c3cccc(C#C[C@]4(O)C(=O)N(C)C[C@H]4C)c3)ccc2n1 (stereo in doubt) [Example 294, (3S,4R*)-3-((3-(4-Amino-2-methylpyrido[3,2-d]pyrimidin-6-yl)phenyl)ethynyl)-3-hydroxy-1,4-dimethylpyrrolidin-2-one]
- IC50 ([1]; Homo sapiens, L-363, 6 h): 2.46 µM
- IC50 [2]: 0.39 µM

Compound: CN1CC[C@@](O)(C#Cc2cccc(-c3ncc4ccnc(N)c4n3)c2)C1=O [Example 1, (R)-3-[2-[3-(8-Aminopyrido[3,4-d]pyrimidin-2-yl)phenyl]ethynyl]-3-hydroxy-1-methyl-pyrrolidin-2-one]
- IC50 ([1]; Homo sapiens, L-363, 6 h): 0.0037 µM
- IC50 [2]: ≤ 0.0005 µM

Compound: CN1CC[C@](O)(C#Cc2cccc(-c3ncc4ccnc(N)c4n3)c2)C1=O [Example 2, (S)-3-[2-[3-(8-Aminopyrido[3,4-d]pyrimidin-2-yl)phenyl]ethynyl]-3-hydroxy-1-methyl-pyrrolidin-2-one]
- IC50 ([1]; Homo sapiens, L-363, 6 h): > 5 µM
- IC50 [2]: 0.16 µM

Compound: Cc1ccc(C#C[C@]2(O)CCN(C)C2=O)cc1-c1ccc2ncnc(N)c2n1 [Example 3, (R)-3-[2-[3-(4-Aminopyrido[3,2-d]pyrimidin-6-yl)-4-methyl-phenyl]ethynyl]-3-hydroxy-1-methyl-pyrrolidin-2-one]
- IC50 ([1]; Homo sapiens, L-363, 6 h): 0.028 µM
- IC50 [2]: 0.0007 µM

Compound: Cc1nc(-c2cccc(C#C[C@]3(O)CCN(C)C3=O)c2)nc2c(N)ncnc12 [Example 4, (R)-3-((3-(8-Amino-4-methylpyrimido[5,4-d]pyrimidin-2-yl)phenyl)ethynyl)-3-hydroxy-1-methylpyrrolidin-2-one]
- IC50 ([1]; Homo sapiens, L-363, 6 h): 0.0054 µM
- IC50 [2]: 0.0008 µM

Compound: Cc1nc(-c2cccc(C#C[C@@]3(O)CCN(C)C3=O)c2)nc2c(N)ncnc12 [Example 5, (S)-3-((3-(8-Amino-4-methylpyrimido[5,4-d]pyrimidin-2-yl)phenyl)ethynyl)-3-hydroxy-1-methylpyrrolidin-2-one]
- IC50 ([1]; Homo sapiens, L-363, 6 h): 1.56 µM
- IC50 [2]: 0.23 µM

Compound: Cc1nc(N)c2nc(-c3cccc(C#C[C@]4(O)CCN(C)C4=O)c3)ccc2n1 [Example 6, (R)-3-((3-(4-Amino-2-methylpyrido[3,2-d]pyrimidin-6-yl)phenyl)ethynyl)-3-hydroxy-1-methylpyrrolidin-2-one]
- IC50 ([1]; Homo sapiens, L-363, 6 h): 0.012 µM
- IC50 [2]: 0.0006 µM

Compound: Cc1nc(N)c2nc(-c3cccc(C#C[C@@]4(O)CCN(C)C4=O)c3)ccc2n1 [Example 7, (S)-3-((3-(4-Amino-2-methylpyrido[3,2-d]pyrimidin-6-yl)phenyl)ethynyl)-3-hydroxy-1-methylpyrrolidin-2-one]
- IC50 ([1]; Homo sapiens, L-363, 6 h): 2.3 µM
- IC50 [2]: 0.17 µM
